Four compounds from patent US20240140953A1, “INHIBITORS OF MENIN-MLL INTERACTION” (BIOMEA FUSION, INC., priority 2018, published 2024) can be followed below.

The subject of experiment [1] is MV-4-11. Description: Long term proliferation assay (Table 3A), MV-4-11. The experiment is classed as cell-based. Conditions: Homo sapiens, MV4-11. The protocol: (§1) Example 5b: IC50 determination of compounds of invention in various cell lines (Long Term Proliferation Assay)
(§2) The following 5 cell lines are used or can be used for the long term proliferation assay.
(§3) Compounds of invention are tested in the 5 suspension lines by 14-day long-term proliferation assay.
(§4) The compound is tested in 10-pt dose titration (client will determine the starting concentration and the dilution scheme) and the final DMSO concentration is kept at 0.2%.
(§5) Vehicle and media control are also included. All treatments are done in triplicate.
(§6) 3 plates are used for each cell line and 15 plates are used for the 5 cell lines.
(§7) • 1) On Day 0, in a flat bottom 96-well plate, add 100 μL of cells per well at the densities optimized. • 2) Prepare compounds in DMSO at 500× final concentration. Dilute the compounds with DMSO at the dilution. • 3) Dilute the compounds in media at 3×final concentration. Add 50 μL of compound or DMSO at 3× final concentration to each well. Final volume in each well is 150 μL, and final concentration of DMSO is 0.2%. Also include 3 untreated control wells, by adding 50 μL of media alone. 4) Incubate plates for 96 hours. • 5) Count the cells using the Acumen, with capabilities for 96-well plates. Pipette cells up and down to mix in each well, and add desired volume of cells to a new flat bottom poly-D-lysine 96-well plate. Add Calcein AM at 1 μM final concentration. Let cells sit at RT for 10 mins followed by a quick spin to get cells settled on the bottom of the wells. Incubate the plate for additional 40 mins in the incubator. Take out the plate and read by Acumen. Calculate the cell numbers taken into account the dilution factors. • 6) Split the master plate. To do this take the total viable cell count calculated using step 5). Take the average of the replicates for each dose in order to be used in splitting the cells. • 7) Use a 96 well V-bottom plate to spin down the cells to remove old media and compound to split the cells. Based on the split ratio place the proper amount of media and cells into the V-bottom plate, and spin the plate at 1100 rpm for 5 minutes. • 8) Following the spin remove the media, careful not to disturb the cellpellet. • 9) Re-suspend pellet in 100 μL fresh media, and add to a new 96-well flat bottom plate. • 10) Add fresh compound, in the same manner as Step 3). • 11) Incubate plates for 72 hours. Repeat steps 5)-10) on Day 7. • 12) Incubate plates for 96 hours. Repeat Step 5)-10) on Day 11. • 13) Incubate 72 hours and repeat step 5) to take a final count. • 14) Data Analysis
(§8) To calculate growth for days 4, 7, 11, and 14: • Calculate the split factor for day 4 to 7, day 7 to 11, and day 11-14.

The test system of experiment [2] is MOLM-13. Description: Long term proliferation assay (Table 3A), MOLM-13. The experiment is classed as cell-based. Conditions: Homo sapiens. The procedure:
as §1, §2, §3, §4, §5, §6, §7, §8

In experiment [3] the test system is MOLM-13 (MLL-AF9). Description: Proliferation study, CellTiterGlo, 4 days (Example 102), MOLM-13. Type of experiment: cell-based, human. Conditions: MOLM-13, 4 days treatment. The text has this: (§9) The objective of the study was to evaluate the ability of representative compounds of the present invention, inhibitors of Menin/MLL interaction to inhibit cell proliferation. The proliferation inhibitory effect was investigated in two human MLL-leukemia cells selected on the bases of MLL fusion protein and listed in Table 102. HL-60 cell line was used as negative control.
(§10) ATP is present in all metabolically active cells and is considered as a marker for cell viability and proliferation. The metabolic cell activity was determined using the CellTiter-Glo kit from Promega, an ATP monitoring system based on the production of luminescence by the reaction of ATP with added UltraGlo® recombinant luciferase (Kawano et al., 2016), according to the supplier's experimental recommendations.
(§11) The described assay evaluates the ability of 4 representative compounds to inhibit the cell proliferation in the human MLL-leukemia cells plus a negative control cell line.
(§12) The assay provides potency values (IC50) for each test compound at a single time point Day 4 (T4).
(§13) Seven concentrations of the compounds (2.00E-05-6.67E-06-2.22E-06-7.41E-07-2.47E-07-8.23E-08-2.74E-08M), were assessed in duplicate in an individual test occasion in all the cell lines. MI-503 (Borkin et al., 2015) was used as reference compound and was tested at the same concentrations as the NCEs. 100% of proliferation is represented by the untreated cells (0.2% DMSO). The cell growth was monitored up to 4 days in culture.
(§14) MV4-11, MOLM-13 and HL-60 cells (see Table 2) were maintained in RPMI-1640 medium (Invitrogen, Cat. n. 618700, Batch n. 1965930) supplemented with 10% of Heat Inactivated FBS (Invitrogen, Cat n. 10500, Batch n. 08Q8078K) and 1% Pen-Strep (Invitrogen, Cat. N. 15140, Batch n. 1910859) and cultured at 37° C. in a humidified incubator with 5% CO2. All the cell lines grow in suspension and the cell density was maintained in a range of 2×10^5-1×10^6 viable cells/ml. Cells were pelleted at 130 g×5 min and conditioned medium was used to dilute the cell suspension.
(§15) Test items were dissolved in glass vials at 10 mM in DMSO with purity ≥99.9% (Sigma, D8418, batch n. SHBH4245V) and stored at −20° C. in 1.5 mL Eppendorf tubes.
(§16) Serial dilutions 1 to 3 in DMSO 100% were prepared starting from a 10 mM stock solutions to generate 7 points concentration response curve (CRC).
(§17) For each plate to test, one 0.4 μL copy plate and four 0.3 μL copy plates were then stamped into 96-well plates not treated for cell adhesion (Sarstedt—cat.no. 82.1581.001) by acoustic liquid Handling, Echo, at a concentration which was 500 fold the final assay concentration. Stamped plates were stored at −20° C. The final concentrations for the reference compound, MI-503, and the test items were: 2.00E-05, 6.67E-06, 2.22E-06, 7.41E-07, 2.47E-07, 8.23E-08 and 2.74E-08 M.
(§18) Cells were plated in 96-well flat bottom microtiter plates at cell density of 15,000 cells/ml for HL-60, 1000 cells/ml for MOLM-13 and 10,000 cell/ml for MV4-11. Cells were treated with 0.2% DMSO (Sigma, D8418, batch n. SHBH4245V) or serial dilutions of compounds (0.027 μM-20 μM) in DMSO (0.2% final concentration). Cells were incubated in a 5% CO2 incubator at 37° C. for 4 days. A CellTiterGlo viability assay (Promega) was employed. Luminescence was read by using VictorV (Perkin Elmer) multilabel plate reader using the standard protocol for luminescence in 96 well plate. The experiment was performed in duplicate.
(§19) Data were expressed as % of inhibition compared to the 0.2% DMSO negative control, and was calculated as follows: […]
(§20) CRCs were analysed by GraphPad and IC50 values were calculated by non-linear regression using 4 parameter-logistic equation. IC50 (μM) values were reported in the final data table. The curve fittings were performed leaving free all the parameters. Any constrain were reported in the results table.
In general terms: ATP-based viability assays read luminescence as a measure of living cells.

For experiment [4], the system named is MV4-11 (MLL-AF4). In words: LTP assay, CellTiterGlo, T4-T14 (Example 103), MV4-11. To be noted: MV4-11, LTP assay. The experiment is classed as cell-based, human. The protocol: (§21) The day of the experiment (T0) all the cell line suspensions were counted by Cell Viability Analyser, Vi-CELL and properly diluted with fresh medium to obtain the cell density reported in the Test System paragraph.
(§22) Cells were tested after 4 passages after thawing.
(§23) 200 μL/well and 150 μL/well of cell suspension were added into the 0.4 μL/well and 0.3 μL/well compound plates, respectively. • Cell plate containing 200 μL/well suspension was incubated at 37° C. in a humidified incubator with 5% CO2. • From each well of the 150 μL/well cell assay plate, 100 μL were harvested and transferred into a 96-well Optiplate (Perkin Elmer, Cat. n. 6005290) and cell viability was measured as described in 4.3 paragraphs (T0).
(§24) After four days in culture (T4) 150 μL/well of fresh medium were added into a new 0.3 μL/well copy compound plate. • From each well of the 200 μL/well cell assay plate: • 100 μL were sampled for the cell viability measurement as described in 4.3 paragraphs (T4). • 50 μL were harvested and added to the 150 μL/well compound plate prepared as described in the first point to dilute 1:4 the cell suspension. • The cell assay plate diluted and containing 200 μL/well suspension were incubated at 37° C. in a humidified incubator with 5% Co2.
(§25) At T7-T11-T14 it was proceeded as described in T4, with the exception that no further cell dilution was carried out at T14.
(§26) Plates containing the samples to be tested were equilibrated at room temperature for approximately 30 min and then 30 μL/well of the Promega CellTiterGlo® reagent were added.
(§27) Contents will be mixed for 5 min on an orbital shaker to induce cell lysis and then incubated at room temperature for an additional 10 min to stabilize the luminescent signal.
(§28) Luminescence was read by using VictorV (Perkin Elmer) multilabel plate reader using the standard protocol for luminescence in 96 well plate.
as §19
(§29) CRCs were analysed by GraphPad and IC50 values were calculated by non-linear regression using 4 parameter-logistic equation. IC50 (μM) values were reported in the final data table.
(§30) The curve fittings were performed leaving free all the parameters. Any constrain were reported in the results table.

Experiment [5] has as its system RS4-11 (MLL-AF4). In words: LTP assay, CellTiterGlo, T4-T14 (Example 103), RS4-11. The experiment is classed as cell-based. To be noted: RS4;11, LTP assay. The protocol: as §21, §22, §23, §24, §25, §26, §27, §28, §19, §29, §30
Experiment [6] relates to HL-60. Description: Proliferation study, CellTiterGlo, 4 days (Example 102), HL-60. Type of experiment: cell-based. To be noted: HL-60, 4 days treatment.
Text: as §9, §10, §11, §12, §13, §14, §15, §16, §17, §18, §19, §20

The test system of experiment [7] is MOLM-13 (MLL-AF9). Description: LTP assay, CellTiterGlo, T4-T14 (Example 103), MOLM-13. The experiment is classed as cell-based, human. To be noted: MOLM-13, LTP assay. The procedure: as §21, §22, §23, §24, §25, §26, §27, §28, §19, §29, §30
The test system of experiment [8] is MV4-11 (MLL-AF4). In words: Proliferation study, CellTiterGlo, 4 days (Example 102), MV4-11. The experiment is classed as cell-based, human. To be noted: MV4-11, 4 days treatment.
Text: as §9, §10, §11, §12, §13, §14, §15, §16, §17, §18, §19, §20

Experiment [9] deals with HL-60. In words: LTP assay, CellTiterGlo, T4-T14 (Example 103), HL-60. The experiment is classed as cell-based. To be noted: HL-60, LTP assay. The protocol:
as §21, §22, §23, §24, §25, §26, §27, §28, §19, §29, §30

The mark [10] stands for this setting: MV-4-11, Day 4, read-out: MV-4-11 Day 4 IC50.
The mark [11] stands for this setting: MV-4-11, Day 11, read-out: MV-4-11 Day 11 IC50.
Where [12] appears, read: 96 h, MOLM-13, Day 4, read-out: MOLM-13 Day 4 IC50.
[13] abbreviates: 264 h, MOLM-13, Day 11, read-out: MOLM-13 Day 11 IC50.

Structures are written as SMILES. pIC50: −log10 of the molar value. Where two headings read alike, the source gives them in different places.

The pIC50 is −log10 of the IC50, conventionally taken in molar units.

As for `O=C(Cc1cc(-c2cccnc2)no1)Nc1ccc(-c2cc3c(N4CCOCC4)ncnc3[nH]2)cc1` [Compound 5, N-{4-[4-(morpholin-4-yl)-7H-pyrrolo[2,3-d]pyrimidin-6-yl]phenyl}-2-[3-(pyridin-3-yl)-1,2-oxazol-5-yl]acetamide], the pIC50 is 6.89 in [1] (setting [10]), 7.18 in experiment [1] (setting [11]), 6.94 in [2] (setting [12]) and 7.49 in [2] (setting [13]).

In the case of `CC(C)c1c(-c2cccnc2)noc1NC(=O)Nc1ccc(-c2cc3c(N4CCOCC4)ncnc3[nH]2)cc1` [Compound 6, 1-{4-[4-(morpholin-4-yl)-7H-pyrrolo[2,3-d]pyrimidin-6-yl]phenyl}-3-[4-(propan-2-yl)-3-(pyridin-3-yl)-1,2-oxazol-5-yl]urea], the negative-log IC50 (pIC50) was 6.64 in experiment [1] (setting [10]), 7.13 in experiment [1] (setting [11]), 6.75 in experiment [2] (setting [12]) and 7.30 in experiment [2] (setting [13]).

On to `CC(C)c1cc(-c2cc3c(N4CCOCC4)ncnc3[nH]2)ccc1NC(=O)Nc1cc(-c2cccnc2)no1` [Compound 7, 1-{4-[4-(morpholin-4-yl)-7H-pyrrolo[2,3-d]pyrimidin-6-yl]-2-(propan-2-yl)phenyl}-3-[3-(pyridin-3-yl)-1,2-oxazol-5-yl]urea], for which the pIC50 was 6.05 in [1] (setting [10]), 6.20 in experiment [1] (setting [11]), 6.03 in experiment [2] (setting [12]) and 6.06 in experiment [2] (setting [13]).

For the compound `Cc1c(CN2CCC(Nc3ncnc4sc(CC(F)(F)F)cc34)CC2)ccc2c1cc(C#N)n2Cc1cn[nH]c1` [MI-503, reference compound], the “MOLM-13 (MLL-AF9) pIC50” value in experiment [3] (CellTiterGlo) came to 6.63. Further, the pIC50 in experiment [3] (CellTiterGlo, read-out: MOLM-13 (MLL-AF9) IC50) is 6.64; in experiment [6] (CellTiterGlo, read-out: HL-60 IC50), 6.38; in experiment [8] (CellTiterGlo, read-out: MV4-11 (MLL-AF4) IC50) it was 6.72. Also, the “MOLM-13 (MLL-AF9) % max” value in experiment [3] (maximal inhibition) turned out to be 98%. Further, the “inhibition of cell viability (in words)” value in experiment [4], in [5], in [7] and in experiment [9] was “fully inhibited cell viability” in each case. The “HL-60 pIC50” value in [6] (CellTiterGlo) is reported as 6.38. In addition, the HL-60 % max in [6] (maximal inhibition) came out at 103%. In [8] (CellTiterGlo), the “MV4-11 (MLL-AF4) pIC50” value was 6.73. In addition, the “MV4-11 (MLL-AF4) % max” value in experiment [8] (maximal inhibition) is recorded as 100%.
